# Results published in patent US12522601B2, “1,3,4-oxadiazole derivative compounds as histone deacetylase 6 inhibitor, and the pharmaceutical composition comprising the same” (CHONG KUN DANG PHARMACEUTICAL CORP., priority 2020, dated 2026).
# Key:
# [1] = biological target: T1, human recombinant HDAC6 (Homo sapiens, UniProt Q9UBN7); assay: In vitro HDAC enzyme activity inhibition assay, HDAC6 (HDAC Fluorimetric Drug Discovery Kit); assay type: biochemical; settings: for HDAC6 Selectivity (fold): HDAC6 versus HDAC1; for IC50: human recombinant HDAC6, same protocol as the HDAC1 test
# T1 construct: purchased Calbiochem Inc. 382180
# T1 sequence (Q9UBN7 1-1215): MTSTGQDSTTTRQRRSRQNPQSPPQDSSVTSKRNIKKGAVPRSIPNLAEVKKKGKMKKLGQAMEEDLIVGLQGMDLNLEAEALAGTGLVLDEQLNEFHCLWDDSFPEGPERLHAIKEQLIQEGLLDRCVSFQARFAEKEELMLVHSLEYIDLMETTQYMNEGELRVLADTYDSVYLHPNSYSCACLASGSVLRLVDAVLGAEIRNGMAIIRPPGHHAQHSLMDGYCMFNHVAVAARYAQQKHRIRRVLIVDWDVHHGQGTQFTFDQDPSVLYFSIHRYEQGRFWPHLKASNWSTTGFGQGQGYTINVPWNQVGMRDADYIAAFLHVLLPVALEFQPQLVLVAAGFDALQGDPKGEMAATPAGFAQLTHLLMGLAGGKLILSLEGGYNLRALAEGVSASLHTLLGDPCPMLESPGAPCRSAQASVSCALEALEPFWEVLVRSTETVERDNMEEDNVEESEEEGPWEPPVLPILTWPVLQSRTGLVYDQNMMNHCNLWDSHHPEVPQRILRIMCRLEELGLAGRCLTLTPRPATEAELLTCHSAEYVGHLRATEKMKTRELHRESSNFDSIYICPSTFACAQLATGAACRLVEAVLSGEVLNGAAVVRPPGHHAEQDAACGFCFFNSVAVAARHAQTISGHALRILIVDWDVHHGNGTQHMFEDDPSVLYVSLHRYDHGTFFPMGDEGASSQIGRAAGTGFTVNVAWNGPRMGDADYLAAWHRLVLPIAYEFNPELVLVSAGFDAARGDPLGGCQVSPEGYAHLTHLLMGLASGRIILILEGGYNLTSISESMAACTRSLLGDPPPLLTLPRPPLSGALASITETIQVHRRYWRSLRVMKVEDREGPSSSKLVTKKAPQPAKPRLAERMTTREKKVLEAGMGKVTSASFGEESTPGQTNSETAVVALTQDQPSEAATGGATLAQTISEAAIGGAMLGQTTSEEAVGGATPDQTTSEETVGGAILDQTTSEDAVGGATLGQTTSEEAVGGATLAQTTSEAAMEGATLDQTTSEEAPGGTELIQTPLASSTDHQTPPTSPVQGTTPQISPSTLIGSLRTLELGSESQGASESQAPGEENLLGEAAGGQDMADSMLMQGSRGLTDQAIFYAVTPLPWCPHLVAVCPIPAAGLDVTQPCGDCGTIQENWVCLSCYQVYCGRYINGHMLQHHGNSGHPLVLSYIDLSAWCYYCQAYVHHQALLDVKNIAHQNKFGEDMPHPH
# Description: (§1) In order to confirm the selectivity of the compounds represented by Chemical Formula I of the present invention to HDAC6 through HDAC1 and HDAC6 enzyme activity inhibition experiments, a comparison experiment was performed using the material that has already been developed as a control group.
# (§2) HDAC enzyme activity was measured using the HDAC Fluorimetric Drug Discovery Kit (Enzo Life Sciences, Inc., BML-AK511, 516). For the HDAC1 enzyme activity test, human recombinant HDAC1 (BML-SE456) was used as an enzyme source and Fluor de Lys®-SIRT1 (BNL-KI177) was used as a substrate. After dispensing 5-fold diluted compounds into a 96-well plate, 0.3 μg of enzyme and 10 μM substrate were added to each well of the plate and allowed to react at 30° C. for 60 minutes. Next, Fluor de Lys® Developer II (BML-KI176) was added and reacted for 30 minutes to complete the reaction, and then the fluorescence values (Ex 360, Em 460) were measured using a multi-plate reader (Flexstation 3, Molecular Device). The HDAC6 enzymes were tested using human recombinant HDAC6 (382180) from Calbiochem Inc., according to the same protocol as the HDAC1 enzyme activity test method. With respect to the final result values, respective IC50 values were calculated using GraphPad Prism 4.0 program, and results thereof were summarized in Table 5 below.
# [2] = biological target: T2, human recombinant HDAC1 (Homo sapiens, UniProt Q13547); assay: In vitro HDAC enzyme activity inhibition assay, HDAC1 (HDAC Fluorimetric Drug Discovery Kit); assay type: biochemical; settings: human recombinant HDAC1, Fluor de Lys-SIRT1 substrate 10 μM, 30° C. for 60 minutes
# T2 construct: purchased Enzo Life Sciences, Inc. BML-SE456
# T2 sequence (Q13547 whole entry): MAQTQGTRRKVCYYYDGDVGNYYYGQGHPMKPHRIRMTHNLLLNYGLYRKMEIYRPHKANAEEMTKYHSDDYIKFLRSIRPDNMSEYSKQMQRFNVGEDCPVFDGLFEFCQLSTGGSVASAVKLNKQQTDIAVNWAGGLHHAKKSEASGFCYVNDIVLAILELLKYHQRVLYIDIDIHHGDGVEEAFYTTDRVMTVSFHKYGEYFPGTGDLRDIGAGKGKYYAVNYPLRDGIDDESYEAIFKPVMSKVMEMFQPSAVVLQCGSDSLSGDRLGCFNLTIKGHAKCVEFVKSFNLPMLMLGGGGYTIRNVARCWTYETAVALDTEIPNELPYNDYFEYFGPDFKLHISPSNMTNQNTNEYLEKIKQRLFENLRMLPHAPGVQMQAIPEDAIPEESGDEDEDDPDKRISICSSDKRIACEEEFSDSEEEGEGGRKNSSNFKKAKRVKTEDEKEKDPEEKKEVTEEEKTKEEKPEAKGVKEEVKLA
# Description: as §1, §2
SMILES,HDAC6 Selectivity (fold) [1],IC50 [1],IC50 [2]
"CC(=O)N1CCN(C(=O)N(Cc2cn3ccc(-c4nnc(C(F)F)o4)cc3n2)c2ccccc2)CC1 [Compound 4040, 4-acetyl-N-((7-(5-(difluoromethyl)-1,3,4-oxadiazol-2-yl)imidazo[1,2-a]pyridin-2-yl)methyl)-N-phenylpiperazine-1-carboxamide]",421 fold,119 nM,> 50000 nM
"CCC(=O)N1CCN(C(=O)N(Cc2cn3ccc(-c4nnc(C(F)F)o4)cc3n2)c2ccccc2)CC1 [Compound 4041, N-((7-(5-(difluoromethyl)-1,3,4-oxadiazol-2-yl)imidazo[1,2-a]pyridin-2-yl)methyl)-N-phenyl-4-propionylpiperazine-1-carboxamide]",193 fold,259 nM,> 50000 nM
"O=C(CO)N1CCN(C(=O)N(Cc2cn3ccc(-c4nnc(C(F)F)o4)cc3n2)c2ccccc2)CC1 [Compound 4042, N-((7-(5-(difluoromethyl)-1,3,4-oxadiazol-2-yl)imidazo[1,2-a]pyridin-2-yl)methyl)-4-(2-hydroxyacetyl)-N-phenylpiperazine-1-carboxamide]",197 fold,254 nM,> 50000 nM
"O=C(C1CCC1)N1CCN(C(=O)N(Cc2cn3ccc(-c4nnc(C(F)F)o4)cc3n2)c2ccccc2)CC1 [Compound 4043, 4-(cyclobutanecarbonyl)-N-((7-(5-(difluoromethyl)-1,3,4-oxadiazol-2-yl)imidazo[1,2-a]pyridine-2-yl)methyl)-N-phenylpiperazine-1-carboxamide]",302 fold,166 nM,> 50000 nM
"O=C(N1CCN(C(=O)C(F)(F)F)CC1)N(Cc1cn2ccc(-c3nnc(C(F)F)o3)cc2n1)c1ccccc1 [Compound 4044, N-((7-(5-(difluoromethyl)-1,3,4-oxadiazol-2-yl)imidazo[1,2-a]pyridin-2-yl)methyl)-N-phenyl-4-(2,2,2-trifluoroacetyl)piperazine-1-carboxamide]",384 fold,130 nM,> 50000 nM
"CS(=O)(=O)N1CCN(C(=O)N(Cc2cn3ccc(-c4nnc(C(F)F)o4)cc3n2)c2ccccc2)CC1 [Compound 4045, N-((7-(5-(difluoromethyl)-1,3,4-oxadiazol-2-yl)imidazo[1,2-a]pyridin-2-yl)methyl)-4-(methylsulfonyl)-N-phenylpiperazine-1-carboxamide]",392 fold,128 nM,> 50000 nM
"COC(=O)N1CCN(C(=O)N(Cc2cn3ccc(-c4nnc(C(F)F)o4)cc3n2)c2ccccc2)CC1 [Compound 4046, methyl 4-(((7-(5-(difluoromethyl)-1,3,4-oxadiazol-2-yl)imidazo[1,2-a]pyridin-2-yl)methyl)(phenyl)carbamoyl)piperazine-1-carboxylate]",400 fold,125 nM,> 50000 nM
"CN(C)C(=O)N1CCN(C(=O)N(Cc2cn3ccc(-c4nnc(C(F)F)o4)cc3n2)c2ccccc2)CC1 [Compound 4047, N1-((7-(5-(difluoromethyl)-1,3,4-oxadiazol-2-yl)imidazo[1,2-a]pyridin-2-yl)methyl)-N4,N4-dimethyl-N1-phenylpiperazine-1,4-dicarboxamide]",400 fold,125 nM,> 50000 nM
"O=C(N1CCN(c2ccccn2)CC1)N(Cc1cn2ccc(-c3nnc(C(F)F)o3)cc2n1)c1ccccc1 [Compound 4048, N-((7-(5-(difluoromethyl)-1,3,4-oxadiazol-2-yl)imidazo[1,2-a]pyridin-2-yl)methyl)-N-phenyl-4-(pyridin-2-yl)piperazine-1-carboxamide]",203 fold,247 nM,> 50000 nM
